Measurements reported in patent US11471494B2, “Microorganisms programmed to produce immune modulators and anti-cancer therapeutics in tumor cells” (Synlogic Operating Company, Inc., priority 2017, dated 2022).

What was measured:
kynurenine = assay: Tumoral kynurenine levels, CT26 murine tumor model (Example 13); type: in vivo, mouse; conditions: Study 2; INCB024360 oral gavage twice daily
[1] = test system: NK cells, γδT cells and CD8+ T cells; conditions: upon treatment; cited from earlier work
CTLA-4 [2] = target: CTLA-4 (Mus musculus, UniProt P09793); conditions: CTLA-4 from mice; cited from earlier work
CTLA-4 (Mus musculus, UniProt P09793), sequence (P09793 36-223): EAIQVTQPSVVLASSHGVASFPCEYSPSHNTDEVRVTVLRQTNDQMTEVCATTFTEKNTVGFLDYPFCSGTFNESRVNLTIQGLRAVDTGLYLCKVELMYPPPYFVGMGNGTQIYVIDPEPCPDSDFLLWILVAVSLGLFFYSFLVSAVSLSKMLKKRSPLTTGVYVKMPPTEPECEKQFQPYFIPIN

CTLA-4 [3] = target: T1, CTLA-4 (Rattus norvegicus, UniProt Q62859); conditions: CTLA-4 from rats; cited from earlier work
T1 sequence (Q62859 1-223): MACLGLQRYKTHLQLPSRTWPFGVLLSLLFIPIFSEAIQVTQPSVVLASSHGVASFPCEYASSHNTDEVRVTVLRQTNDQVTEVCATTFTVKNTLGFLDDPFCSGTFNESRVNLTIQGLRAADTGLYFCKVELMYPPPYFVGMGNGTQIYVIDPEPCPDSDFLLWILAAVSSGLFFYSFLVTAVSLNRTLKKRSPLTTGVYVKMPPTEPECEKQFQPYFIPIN

CTLA-4 [4] = target: T2, CTLA-4 (Oryctolagus cuniculus, UniProt P42072); conditions: CTLA-4 from rabbits; cited from earlier work
T2 sequence (P42072 36-223): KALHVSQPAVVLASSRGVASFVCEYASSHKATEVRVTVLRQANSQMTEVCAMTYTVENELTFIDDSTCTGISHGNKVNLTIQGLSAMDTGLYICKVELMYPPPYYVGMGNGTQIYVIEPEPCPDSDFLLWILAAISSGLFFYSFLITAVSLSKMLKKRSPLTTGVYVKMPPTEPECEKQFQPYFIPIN

## NS(=O)(=O)NCCNc1nonc1C(=NO)Nc1ccc(F)c(Br)c1 [INCB024360]
kynurenine
  Intratumoral kynurenine levels, SYN2028 compared with INCB024360: similar

## recombinant human IL-15: recombinant human IL-15 of a first-in-human clinical trial
[1]
  expansion of NK cells: 10 fold
  proliferation of γδT cells and CD8+ T cells: significantly increased

## Ipilimumab
CTLA-4 [2]
  cross-reactivity with or binding to CTLA-4: did not show cross-reactivity with or binding to
CTLA-4 [3]
  cross-reactivity with or binding to CTLA-4: did not show cross-reactivity with or binding to
CTLA-4 [4]
  cross-reactivity with or binding to CTLA-4: did not show cross-reactivity with or binding to
